Measured values from PubChem BioAssay (NCI).
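Five concentrations, 48 hours, 96-well plates. Abbreviation: GI50, concentration required for 50% inhibition of growth. At the TGI there is no net growth.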

Key:
Assay in all cases: DTP human tumour cell line panel, 48 h
SK-MEL-28 melanoma = tested on: SK-MEL-28 melanoma
UACC-62 melanoma = tested on: UACC-62 melanoma
NCI-H460 lung = tested on: NCI-H460 lung
COLO 205 colon = tested on: COLO 205 colon
HL-60(TB) leukemia = tested on: HL-60(TB) leukemia
UO-31 renal = tested on: UO-31 renal
SNB-75 CNS = tested on: SNB-75 CNS
HCC-2998 colon = tested on: HCC-2998 colon
HOP-62 NSCLC = tested on: HOP-62 NSCLC

| SMILES | TGI (SK-MEL-28 melanoma) [µM] | TGI (UACC-62 melanoma) [µM] | TGI (NCI-H460 lung) [µM] | TGI (COLO 205 colon) [µM] | TGI (HL-60(TB) leukemia) [µM] | TGI (UO-31 renal) [µM] | TGI (SNB-75 CNS) [µM] | TGI (HCC-2998 colon) [µM] | TGI (HOP-62 NSCLC) [µM] | GI50 (SK-MEL-28 melanoma) [µM] | GI50 (UACC-62 melanoma) [µM] | GI50 (NCI-H460 lung) [µM] | GI50 (COLO 205 colon) [µM] | GI50 (HL-60(TB) leukemia) [µM] | GI50 (UO-31 renal) [µM] |
| --- | --- | --- | --- | --- | --- | --- | --- | --- | --- | --- | --- | --- | --- | --- | --- |
| CC1CC[P+](c2ccccc2)(c2ccccc2)CC1 | > 100 | > 100 | > 100 | > 100 | > 100 | > 100 | > 100 | > 100 | > 100 |  |  |  |  |  |  |
| COC[C@H](C)N=CN1CCc2ccccc2C1(Cc1ccccc1)Cc1ccccc1 | 23.6 | > 100 | 25.9 | 34.6 |  | 33 | 43 |  | 95.4 |  |  |  |  |  |  |
| COC(=O)C(/C(=N\NC(N)=S)C(=O)Nc1ccccc1[N+](=O)[O-])c1cnc2ccccc2n1 (centres undefined) | > 100 | > 100 | > 100 | > 100 | > 100 | > 100 | > 100 | > 100 | > 100 |  |  |  |  |  |  |
| c1ccc2c(NCCCCCCNc3cccc4ccccc34)cccc2c1 | > 100 | > 100 | > 100 | > 100 | > 100 | > 100 | > 100 | > 100 | > 100 |  |  |  |  |  |  |
| O=c1cc(-c2ccccc2)[nH]c2cc(Cl)ccc12 | > 100 | 11.9 | 14.8 | 2.82 | 0.612 | > 100 | 6.07 | 4.76 | 13.3 |  |  |  |  |  |  |
| COc1ccc(CCc2cc(OC)c(O)c(OC)c2)cc1 | 58.8 | > 100 | > 100 | > 100 |  | > 100 | > 100 | > 100 | > 100 |  |  |  |  |  |  |
| C1C[OH+]CC[OH+]CCNCC[OH+]CC[OH+]CCN1.Cl.[Cl-].[Pt+4] | > 100 | > 100 | > 100 | > 100 | > 100 | > 100 |  |  |  | > 100 | > 100 | > 100 | > 100 | > 100 | > 100 |
| C[Si](C)(C)C(Sc1ccccc1)(Sc1ccccc1)Sc1ccccc1 | > 100 | > 100 | > 100 | > 100 | > 100 | > 100 | > 100 | > 100 |  |  |  |  |  |  |  |
| CCN=C(C#N)NCC | > 100 | > 100 | > 100 | > 100 | > 100 | > 100 | > 100 | > 100 | > 100 |  |  |  |  |  |  |
| Cc1ccccc1C1CC(c2ccccc2)=NO1 (centres undefined) | > 100 | > 100 | > 100 | > 100 | > 100 | > 100 | > 100 | > 100 | > 100 |  |  |  |  |  |  |
| CCOC(=O)c1cccnc1C(OC(C)=O)OC(C)=O | > 100 | > 100 | > 100 | > 100 | > 100 | > 100 | > 100 | > 100 | > 100 |  |  |  |  |  |  |
| C/C(=N\NC(=O)CC(=O)N(C(=O)c1ccc(Cl)cc1)c1ccc(C)cc1)c1ccccc1O | > 100 | > 100 | > 100 | > 100 |  | > 100 | 43.9 |  | > 100 |  |  |  |  |  |  |
| CCOC(=O)CNc1nnnn1C1OC(CO)C(O)C1O (centres undefined) |  | > 100 | > 100 | > 100 |  | > 100 | > 100 | > 100 | > 100 |  |  |  |  |  |  |
| Cn1cnc([N+](=O)[O-])c1Sc1nccc(=O)[nH]1 | > 100 | > 100 | > 100 | > 100 |  | > 100 | > 100 | > 100 | > 100 |  |  |  |  |  |  |
| CCOC1CC2OC(=O)C1C=C2C(=O)OC (centres undefined) | 62.8 | > 100 | > 100 | 37.2 | 46.8 | > 100 |  | > 100 | > 100 |  |  |  |  |  |  |
| CCOC(=O)C(C(O)c1ccc([N+](=O)[O-])cc1)P(=O)(OCC)OCC (centres undefined) | > 100 | > 100 | > 100 |  | 64 |  | > 100 | > 100 | > 100 |  |  |  |  |  |  |
| CCN(CC)CCNc1ccc2nc(C)n3c4ccc(O)cc4c(=O)c1c23 | 11.3 |  | 1.83 |  | 2.78 | 12.1 | 14.7 | 1.99 | 18.8 |  |  |  |  |  |  |
| Cc1ccc(NC(=O)OCC(COc2ccc(Cl)cc2Cl)OC(=O)Nc2ccc(C)cc2)cc1 (centres undefined) | > 100 | > 100 | > 100 | > 100 |  | > 100 | 68.2 | > 100 | > 100 |  |  |  |  |  |  |
| C=C(CCCO)[C@@H]1CC[C@@](C)(O)[C@H]1C | > 100 | > 100 | > 100 | > 100 |  | > 100 | > 100 | > 100 |  |  |  |  |  |  |  |
| CCN(CC)CCn1c2ccccc2c(=O)c2c(OC)ccc(OC)c21 |  |  | > 100 | > 100 | > 100 | > 100 |  |  | > 100 |  |  |  |  |  |  |
| CC1C2CC=CC(=O)[C@@]2(C)CCC12OCCO2 (some centres undefined) | > 100 | > 100 | > 100 |  |  | > 100 | > 100 | > 100 | > 100 |  |  |  |  |  |  |
